Experiment in all cases: level (log10 ratio to DMSO vehicle control); higher = higher biomarker level / cell amount than vehicle control
What all share (conditions): in DMSO

Compound in experiment [1]: OCC(F)(F)C(F)(F)C(F)(F)C(F)(F)C(F)(F)C(F)(F)F [6:1 Fluorotelomer alcohol]
The procedure:
(§1)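 BioMAP Diversity Plus panel of 12 human primary cell co-culture systems (3C, 4H, LPS, SAg, BT, BF4T, BE3C, CASM3C, HDF3CGF, KF3CT, MyoF, Mphg). Compounds were added 1 h before stimulation and left for 24 h (MyoF 48 h; BT 72 h for soluble read-outs or 6 d for IgG). Biomarkers were read by ELISA, cytotoxicity by SRB, PBMC viability and proliferation by Alamar Blue. Each well value was divided by the mean of 8 DMSO control wells on the same plate and log10 transformed; duplicate blinded samples were tested at 4 concentrations.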

Compound in experiment [2]: OCC(F)(F)C(F)(F)C(F)(F)C(F)(F)C(F)(F)C(F)(F)C(F)(F)C(F)(F)C(F)(F)C(F)(F)C(F)(F)F [11:1 Fluorotelomer alcohol]
The procedure:
as §1

Compound in experiment [3]: O=C(CC(=O)C(F)(F)C(F)(F)C(F)(F)F)c1cccs1 [(Perfluorobutyryl)-2-thenoylmethane]
The procedure:
as §1

Compound in experiment [4]: O=C(O)C(F)(F)C(F)(F)C(=O)O [Tetrafluorosuccinic acid]
The procedure: as §1

Compound in experiment [5]: C=CC(=O)OCC(F)(F)C(F)(F)C(F)(F)C(F)(F)C(F)(F)C(F)(F)C(F)(F)C(F)F [1H,1H,9H-Perfluorononyl acrylate]
Here is the method: as §1

Compound in experiment [6]: Cc1ccc(S(=O)(=O)OCC(F)(F)C(F)(F)C(F)(F)C(F)(F)C(F)(F)C(F)F)cc1 [1H,1H,7H-Perfluoroheptyl 4-methylbenzenesulfonate]
The procedure:
as §1

Compound in experiment [7]: FC(F)(F)COC(OCC(F)(F)F)OCC(F)(F)F [tris(Trifluoroethoxy)methane]
Here is the method: as §1

Data on seven test systems can be found in the supplement of paper PMC10331698.

± gives the standard deviation of the averaged measurements.

As to BF4T:IL-1alpha, the “level (log10)” value is -0.0005 ± 0.005 in experiment [1] (6700 nM); 0.0035 ± 0.0021 in experiment [1] (20000 nM); 0.0005 ± 0.011 in experiment [1] (60000 nM); -0.016 ± 0.0014 in experiment [2] (1100 nM); -0.0125 ± 0.013 in experiment [2] (3300 nM); 0.0025 ± 0.0021 in experiment [2] (10000 nM). Moreover, the “level (log10)” value in experiment [3] (6700 nM) was -0.041; in experiment [3] (20000 nM), -0.0615 ± 0.011; in experiment [4] (6700 nM), 0.023 ± 0.02; in experiment [4] (20000 nM), 0.0145 ± 0.025; in experiment [4] (60000 nM) it was 0.0335 ± 0.016; in experiment [5] (6700 nM), 0.007 ± 0.0071. Besides, the “level (log10)” value in experiment [5] (20000 nM) was 0.017 ± 0.014; in experiment [5] (60000 nM), 0.005 ± 0.013; in experiment [6] (6700 nM), -0.008 ± 0.0085; in experiment [6] (20000 nM), 0.022 ± 0.018; in experiment [6] (60000 nM), 0.04 ± 0.034; in experiment [7] (6700 nM), -0.0065 ± 0.013. Further, the “level (log10)” value was -0.0115 ± 0.013 in experiment [7] (20000 nM) and 0.003 ± 0.0099 in experiment [7] (60000 nM).

In the case of LPS:IL-1alpha, the “level (log10)” value was -0.038 ± 0.03 in experiment [1] (6700 nM); -0.015 ± 0.061 in experiment [1] (20000 nM); -0.0105 ± 0.023 in experiment [1] (60000 nM); -0.0655 ± 0.0092 in experiment [2] (1100 nM); -0.14 ± 0.0035 in experiment [2] (3300 nM); -0.144 ± 0.012 in experiment [2] (10000 nM). For the same test system, the “level (log10)” value in experiment [3] (6700 nM) is -0.069 ± 0.034; in experiment [3] (20000 nM) it was 0.109 ± 0.016; in experiment [4] (6700 nM), -0.0215 ± 0.021; in experiment [4] (20000 nM) it was -0.0175 ± 0.0092; in experiment [4] (60000 nM) it was -0.0015 ± 0.013; in experiment [5] (6700 nM), 0.04 ± 0.028. Moreover, the “level (log10)” value in experiment [5] (20000 nM) is 0.0435 ± 0.03; in experiment [5] (60000 nM), 0.0325 ± 0.053; in experiment [6] (6700 nM) it was -0.018 ± 0.017; in experiment [6] (20000 nM), -0.006 ± 0.0042; in experiment [6] (60000 nM), -0.039 ± 0.0085; in experiment [7] (6700 nM), -0.019 ± 0.014. Also, the “level (log10)” value in experiment [7] (20000 nM) is -0.015 ± 0.014; in experiment [7] (60000 nM) it was -0.0095 ± 0.035.

In the case of 4H:CCL26/Eotaxin-3, the “level (log10)” value in experiment [1] (6700 nM) was 0.01 ± 0.0085; in experiment [1] (20000 nM), 0.012 ± 0.018; in experiment [1] (60000 nM) it was -0.003 ± 0.025; in experiment [2] (1100 nM), 0.0025 ± 0.0035; in experiment [2] (3300 nM), -0.0055 ± 0.0092; in experiment [2] (10000 nM) it was -0.0085 ± 0.0078. The “level (log10)” value in experiment [3] (6700 nM) was -0.041 ± 0.0057; in experiment [3] (20000 nM), -0.241 ± 0.016; in experiment [4] (6700 nM) it was 0.0025 ± 0.049; in experiment [4] (20000 nM) it was -0.037 ± 0.064; in experiment [4] (60000 nM), 0.0315 ± 0.018; in experiment [5] (6700 nM), -0.0045 ± 0.0035. Further, the “level (log10)” value is -0.016 ± 0.031 in experiment [5] (20000 nM); -0.052 ± 0.024 in experiment [5] (60000 nM); 0.007 ± 0.0057 in experiment [6] (6700 nM); -0.0015 ± 0.013 in experiment [6] (20000 nM); -0.057 ± 0.052 in experiment [6] (60000 nM); 0.018 ± 0.047 in experiment [7] (6700 nM). The “level (log10)” value in experiment [7] (20000 nM) was 0.0235 ± 0.043; in experiment [7] (60000 nM), 0.0415 ± 0.0078.

Take BT:Secreted IgG: the “level (log10)” value in experiment [1] (6700 nM) is 0.004 ± 0.042; in experiment [1] (20000 nM), -0.0005 ± 0.04; in experiment [1] (60000 nM), -0.161 ± 0.14; in experiment [2] (1100 nM), 0.007 ± 0.025; in experiment [2] (3300 nM), 0.0025 ± 0.033; in experiment [2] (10000 nM), -0.014 ± 0.054. The “level (log10)” value is -0.009 ± 0.018 in experiment [3] (6700 nM); -0.855 ± 0.016 in experiment [3] (20000 nM); -0.0035 ± 0.033 in experiment [4] (6700 nM); 0.0055 ± 0.011 in experiment [4] (20000 nM); 0.0155 ± 0.0035 in experiment [4] (60000 nM); -0.011 ± 0.027 in experiment [5] (6700 nM). Also, the “level (log10)” value was -0.0185 ± 0.039 in experiment [5] (20000 nM); -0.412 ± 0.43 in experiment [5] (60000 nM); 0.006 ± 0.018 in experiment [6] (6700 nM); -0.019 ± 0.035 in experiment [6] (20000 nM); -0.22 ± 0.18 in experiment [6] (60000 nM); 0.019 ± 0.079 in experiment [7] (6700 nM). In addition, the “level (log10)” value is -0.0135 ± 0.091 in experiment [7] (20000 nM) and 0.042 ± 0.014 in experiment [7] (60000 nM).

In the case of 3C:CXCL9/MIG, the “level (log10)” value in experiment [1] (6700 nM) is 0.0065 ± 0.0035; in experiment [1] (20000 nM) it was 0.0065 ± 0.0035; in experiment [1] (60000 nM), 0.019; in experiment [2] (1100 nM), -0.001 ± 0.014; in experiment [2] (3300 nM) it was 0.0045 ± 0.0064; in experiment [2] (10000 nM), 0.0145 ± 0.016. The “level (log10)” value in experiment [3] (6700 nM) is -0.0205 ± 0.012; in experiment [3] (20000 nM), -0.0255 ± 0.0021; in experiment [4] (6700 nM), 0.0025 ± 0.015; in experiment [4] (20000 nM), -0.0145 ± 0.012; in experiment [4] (60000 nM), 0.0035 ± 0.028; in experiment [5] (6700 nM) it was 0.009 ± 0.0028. The “level (log10)” value was 0.0005 ± 0.011 in experiment [5] (20000 nM); -0.0055 ± 0.005 in experiment [5] (60000 nM); 0.005 ± 0.011 in experiment [6] (6700 nM); -0.008 ± 0.0014 in experiment [6] (20000 nM); -0.01 ± 0.0042 in experiment [6] (60000 nM); -0.01 ± 0.018 in experiment [7] (6700 nM). Also, the “level (log10)” value in experiment [7] (20000 nM) was -0.008 ± 0.0057; in experiment [7] (60000 nM), -0.0115 ± 0.0035.

Regarding BF4T:MMP-1, the “level (log10)” value in experiment [1] (6700 nM) is 0.002 ± 0.014; in experiment [1] (20000 nM) it was 0.0025 ± 0.0078; in experiment [1] (60000 nM), -0.011 ± 0.0028; in experiment [2] (1100 nM), -0.0095 ± 0.005; in experiment [2] (3300 nM) it was -0.01; in experiment [2] (10000 nM) it was -0.0015 ± 0.016. The “level (log10)” value in experiment [3] (6700 nM) is -0.02 ± 0.011; in experiment [3] (20000 nM), -0.0785 ± 0.0092; in experiment [4] (6700 nM) it was 0.016 ± 0.02; in experiment [4] (20000 nM) it was 0.008 ± 0.013; in experiment [4] (60000 nM), 0.0295 ± 0.0035; in experiment [5] (6700 nM), -0.0185 ± 0.0021. Moreover, the “level (log10)” value in experiment [5] (20000 nM) is -0.0005 ± 0.005; in experiment [5] (60000 nM), 0.001 ± 0.0057; in experiment [6] (6700 nM), 0.0105 ± 0.046; in experiment [6] (20000 nM), -0.018 ± 0.038; in experiment [6] (60000 nM), 0.013 ± 0.037; in experiment [7] (6700 nM), 0.006 ± 0.02. For the same test system, the “level (log10)” value in experiment [7] (20000 nM) was -0.007 ± 0.017; in experiment [7] (60000 nM) it was 0.0015 ± 0.00071.

LPS:CD62E/E-Selectin: the “level (log10)” value in experiment [1] (6700 nM) is 0.001 ± 0.018; in experiment [1] (20000 nM), -0.013 ± 0.011; in experiment [1] (60000 nM), -0.014 ± 0.0071; in experiment [2] (1100 nM) it was 0.016 ± 0.0085; in experiment [2] (3300 nM), 0.01 ± 0.0099; in experiment [2] (10000 nM), 0.015 ± 0.014. The “level (log10)” value was -0.0755 ± 0.047 in experiment [3] (6700 nM); 0.061 ± 0.016 in experiment [3] (20000 nM); 0.0155 ± 0.036 in experiment [4] (6700 nM); 0.003 ± 0.011 in experiment [4] (20000 nM); 0.0275 ± 0.013 in experiment [4] (60000 nM); -0.002 ± 0.027 in experiment [5] (6700 nM). For the same test system, the “level (log10)” value was 0.0165 ± 0.026 in experiment [5] (20000 nM); -0.008 in experiment [5] (60000 nM); 0.001 ± 0.0057 in experiment [6] (6700 nM); 0.012 ± 0.027 in experiment [6] (20000 nM); 0.0375 ± 0.0078 in experiment [6] (60000 nM); -0.009 ± 0.033 in experiment [7] (6700 nM). The results for the “level (log10)” value in experiment [7] (20000 nM) and in experiment [7] (60000 nM) were -0.005 and -0.009 ± 0.0071, respectively.
